Earlier results, collected in publication PMC8886800 (Journal of the American Chemical Society, 2021).

Experiments:
[1] = system: VEGFR
[2] = system: angiogenesis

Ac-KLTWMELY QLAYKGI [MA]
binding to VEGF receptors (reported) [1]: demonstrated binding to VEGF receptors | effect on angiogenesis (reported) [2]: capable of inhibiting angiogenesis
